Experimental data from patent US6583161B1, “Benzenesulfonamides and benzamides as therapeutic agents” (Tularik Inc., priority 1998, dated 2003).

Legend:
MCF-7 cells = experiment: Cell growth inhibition using MCF-7 cells; type: cell-based; details: Homo sapiens, MCF7
Source text: (§1) Compounds can be evaluated for their ability to inhibit in vitro the growth of HeLa cells, an immortal cell line derived from a human cervical carcinoma commonly used to evaluate the cytotoxicity of potential therapeutic agents. The following data reflect the cytotoxicity of selected examples of the present invention. The values given represent the concentration of test compound required to inhibit by 50% the uptake of Alamar Blue (Biosource International, Camarillo, Calif.) by HeLa cell cultures, which correlates directly with the overall levels of cellular metabolism in the culture, and is generally accepted as an appropriate marker of cell growth. The test was conducted according to the method of Ahmed et al. (J. Immunol. Methods 1994, 170, 211). […] Compounds were similarly evaluated for cell growth inhibition using MCF-7 cells and MCF-7/ADR cells.

MCF-7/ADR cells = experiment: Cell growth inhibition using MCF-7/ADR cells; type: cell-based; details: Homo sapiens, NCI/ADR-RES
Source text: as §1

HeLa cells = experiment: Inhibition of HeLa cell growth (Alamar Blue uptake); type: cell-based; details: Homo sapiens; concentration required to inhibit by 50% the uptake of Alamar Blue by HeLa cell cultures
Source text: as §1

`COc1ccc(NS(=O)(=O)c2cc(OC)c(OC)c(OC)c2)cc1O` [Example 1, 1-[(3-Hydroxy-4-methoxyphenyl)aminosulfonyl]-3,4,5-trimethoxybenzene] gave an IC50 (MCF-7 cells) of 0.15 µM, an IC50 (MCF-7/ADR cells) of 0.5 µM and an IC50 (HeLa cells) of 0.15 µM. The melting point was 145 to 146 °C.
